Results published in patent US20240150303A1, “DIAMINOTRIAZINE COMPOUNDS” (BASF SE, priority 2021, published 2024).
“And” between values parts separate entries of the source, which are not always exact repeats. Equal values may be shown once.

Experiments:
Assay in all cases: greenhouse pre-emergence herbicidal test
Assay type in all cases: in vivo
[1] = system: Setaria faberi
Source text: (§1) The seeds of the test plants were sown separately for each species. For the pre-emergence treatment, the active ingredients, which had been suspended or emulsified in water, were applied directly after sowing by means of finely distributing nozzles. The containers were irrigated gently to promote germination and growth and subsequently covered with transparent plastic hoods until the plants had rooted. This cover caused uniform germination of the test plants, unless this had been impaired by the active ingredients. […] The test period extended over 2 to 4 weeks. During this time, the plants were tended, and their response to the individual treatments was evaluated. Evaluation was carried out using a scale from 0 to 100. 100 means no emergence of the plants, or complete destruction of at least the aerial moieties, and 0 means no damage, or normal course of growth. A moderate herbicidal activity is given at values of at least 60, a good herbicidal activity is given at values of at least 70, and a very good herbicidal activity is given at values of at least 85. The plants used in the greenhouse experiments were of the following species: [table]

[2] = system: Alopercurus myosuroides
Source text: (§2) The culture containers used were plastic flowerpots containing loamy sand with approximately 3.0% of humus as the substrate. The seeds of the test plants were sown separately for each species.
(§3) For the pre-emergence treatment, the active ingredients, which had been suspended or emulsified in water, were applied directly after sowing by means of finely distributing nozzles.
(§4) The containers were irrigated gently to promote germination and growth and subsequently covered with transparent plastic hoods until the plants had rooted. This cover caused uniform germination of the test plants, unless this had been impaired by the active ingredients.
(§5) Depending on the species, the plants were kept at 10-25° C. or 20-35° C., respectively.
(§6) The test period extended over 2 to 4 weeks. During this time, the plants were tended, and their response to the individual treatments was evaluated.
(§7) Evaluation was carried out using a scale from 0 to 100. 100 means no emergence of the plants, or complete destruction of at least the aerial moieties, and 0 means no damage, or normal course of growth. A moderate herbicidal activity is given at values of at least 60, a good herbicidal activity is given at values of at least 70, and a very good herbicidal activity is given at values of at least 85.
(§8) The plants used in the greenhouse experiments were of the following species: […]

[3] = system: Lolium multiflorum
Source text: as §2, §3, §4, §5, §6, §7, §8

[4] = system: Amaranthus retroflexus
Source text: as §1

[5] = system: Echinocloa crus-galli
Source text: as §1

[6] = system: Abutilon theophrasti
Source text: as §2, §3, §4, §5, §6, §7, §8

[7] = system: Digitaria sanguinalis
Source text: as §2, §3, §4, §5, §6, §7, §8

[8] = system: Apera spica-venti; conditions: 31 g/ha
Source text: as §2, §3, §4, §5, §6, §7, §8

SMILES: CCC(C)(F)c1nc(N)nc(Nc2c(C)c(Cl)cc(Cl)c2OC)n1 (racemic) [Example 102]
- herbicidal activity ([1]; 62.5 g/ha): 80%
- herbicidal activity ([2]; 62.5 g/ha): 85%
- herbicidal activity ([3]; 62.5 g/ha): 90%

SMILES: COc1c(Cl)cc(Cl)c(C)c1Nc1nc(N)nc(C(C)(F)CCl)n1 (racemic) [Example 104]
- herbicidal activity ([1]; 62.5 g/ha): 85%
- herbicidal activity ([2]; 62.5 g/ha): 90%
- herbicidal activity ([3]; 62.5 g/ha): 100%

SMILES: COc1c(Cl)cc(Cl)c(Cl)c1Nc1nc(N)nc(C(C)(C)F)n1 [Example 2]
- herbicidal activity ([4]; 250 g/ha): 100%
- herbicidal activity ([5]; 62.5 g/ha): 100%
- herbicidal activity ([5]; 250 g/ha): 100%
- herbicidal activity ([1]; 250 g/ha): 100%
- herbicidal activity ([6]; 62.5 g/ha): 100%
- herbicidal activity ([7]; 62.5 g/ha): 100%

SMILES: COc1c(F)ccc(Br)c1Nc1nc(N)nc(C(C)(C)F)n1 [Example 3, N4-(6-bromo-3-fluoro-2-methoxy-phenyl)-6-(1-fluoro-1-methyl-ethyl)-1,3,5-triazine-2,4-diamine]
- herbicidal activity ([4]; 250 g/ha): 100%
- herbicidal activity ([5]; 62.5 g/ha): 100%
- herbicidal activity ([1]; 250 g/ha): 100%
- herbicidal activity ([6]; 62.5 g/ha): 100%
- herbicidal activity ([6]; 250 g/ha): 100%
- herbicidal activity ([7]; 62.5 g/ha): 100%

SMILES: COc1c(Br)ccc(Cl)c1Nc1nc(N)nc(C(C)(C)F)n1 [Example 4]
- herbicidal activity ([4]; 250 g/ha): 100%
- herbicidal activity ([5]; 62.5 g/ha): 100%
- herbicidal activity ([5]; 250 g/ha): 100%
- herbicidal activity ([1]; 250 g/ha): 100%
- herbicidal activity ([6]; 62.5 g/ha): 100%
- herbicidal activity ([7]; 62.5 g/ha): 100%

SMILES: COc1c(F)cc(Br)c(C)c1Nc1nc(N)nc(C(C)(C)F)n1 [Example 5]
- herbicidal activity ([4]; 250 g/ha): 100%
- herbicidal activity ([5]; 250 g/ha): 100% and 85%
- herbicidal activity ([1]; 250 g/ha): 100%
- herbicidal activity ([6]; 250 g/ha): 90%
- herbicidal activity ([7]; 250 g/ha): 100%

SMILES: COc1c(F)cc(Cl)c(C)c1Nc1nc(N)nc(C(C)(C)F)n1 [Example 7]
- herbicidal activity ([4]; 32 g/ha): 100%
- herbicidal activity ([5]; 125 g/ha): 100%
- herbicidal activity ([1]; 125 g/ha): 100%
- herbicidal activity ([6]; 32 g/ha): 100%
- herbicidal activity ([6]; 125 g/ha): 100%
- herbicidal activity ([7]; 32 g/ha): 100%

SMILES: COc1c(F)cc(F)c(C)c1Nc1nc(N)nc(C(C)(C)F)n1 [Example 8]
- herbicidal activity ([4]; 32 g/ha): 100%
- herbicidal activity ([5]; 125 g/ha): 100%
- herbicidal activity ([1]; 125 g/ha): 100%
- herbicidal activity ([6]; 32 g/ha): 100%
- herbicidal activity ([6]; 125 g/ha): 100%
- herbicidal activity ([7]; 32 g/ha): 100%

SMILES: COc1c(Cl)cc(F)c(Cl)c1Nc1nc(N)nc(C(C)(C)F)n1 [Example 10]
- herbicidal activity ([4]; 32 g/ha): 100%
- herbicidal activity ([4]; 250 g/ha): 100%
- herbicidal activity ([1]; 250 g/ha): 100%
- herbicidal activity ([6]; 32 g/ha): 100%
- herbicidal activity ([6]; 250 g/ha): 100%
- herbicidal activity ([7]; 32 g/ha): 100%

SMILES: COc1c(Cl)cc(F)c(Br)c1Nc1nc(N)nc(C(C)(C)F)n1 [Example 11]
- herbicidal activity ([4]; 32 g/ha): 100%
- herbicidal activity ([5]; 250 g/ha): 100%
- herbicidal activity ([1]; 250 g/ha): 100%
- herbicidal activity ([6]; 32 g/ha): 100%
- herbicidal activity ([2]; 250 g/ha): 100%
- herbicidal activity ([7]; 32 g/ha): 100%

SMILES: COc1c(Cl)cc(C)c(C)c1Nc1nc(N)nc(C(C)(C)F)n1 [Example 15]
- herbicidal activity ([5]; 125 g/ha): 100%
- herbicidal activity ([1]; 31 g/ha): 90%
- herbicidal activity ([1]; 125 g/ha): 100%
- herbicidal activity ([2]; 31 g/ha): 95%
- herbicidal activity ([2]; 125 g/ha): 100%
- herbicidal activity ([3]; 31 g/ha): 95%

SMILES: CCOc1c(F)cc(F)c(Cl)c1Nc1nc(N)nc(C(C)(C)F)n1 [Example 24]
- herbicidal activity ([4]; 31 g/ha): 100%
- herbicidal activity ([4]; 62.5 g/ha): 100%
- herbicidal activity ([5]; 62.5 g/ha): 100%
- herbicidal activity ([1]; 62.5 g/ha): 100%
- herbicidal activity [8]: 100%

SMILES: CCOc1c(Br)cc(F)c(Cl)c1Nc1nc(N)nc(C(C)(C)F)n1 [Example 30]
- herbicidal activity ([4]; 31 g/ha): 85%
- herbicidal activity ([1]; 31 g/ha): 100%
- herbicidal activity ([6]; 31 g/ha): 100%
- herbicidal activity ([2]; 31 g/ha): 100%
- herbicidal activity [8]: 85%
